# Where two headings read alike, the source gives them in different places.
# Columns and labels:
# [1] = test system: Phaeodactylum tricornutum; assay: Microplate assay: growth (absorbance 680 nm) and intracellular lipids (Nile Red fluorescence); format: cell-based
# PTP1b = PTP1b (Homo sapiens, UniProt P18031); conditions: cited from earlier work
# Nannochloropsis salina [2] = test system: Nannochloropsis salina
# Nannochloropsis oculata [3] = test system: Nannochloropsis oculata
# [4] = target: fatty acid amide hydrolase (Homo sapiens, UniProt O00519); conditions: cited from earlier work
# Nannochloris sp. [5] = assay: Microplate assay: growth (absorbance 680 nm) and intracellular lipids (Nile Red fluorescence); format: cell-based; conditions: for % Increase based on Nile Red Fluorescence Intensity: dissolved in water, added t=day 0; for Nile Red Fluorescence % Increase: initial screening, p<0.05
# MLCK = conditions: cited from earlier work
# PKC = conditions: PKC; cited from earlier work
# [6] = target: T1, PKA (rat liver catalytic subunit) (Rattus norvegicus, UniProt P27791); conditions: cited from earlier work
# T1 construct: rat liver catalytic subunit; host or cells: rat liver
# p70 S6 kinase activation = conditions: signaling that leads to p70 S6 kinase activation; cited from earlier work
# CDK = conditions: CDKs; cited from earlier work
# ERK signaling pathway = conditions: cited from earlier work
# Nannochloris sp. [7] = assay: 500 mL batch culture: growth, dry weight and lipid extract (gravimetric); format: cell-based; conditions: Nannochloris sp., 500 mL culture, 40 nM
# Protocol: (§1) Batch cultures were grown in 500 mL Pyrex media bottles with stirring and air bubbling (homemade manifold with Petco air pump, 2-4% CO2). Incoming air was sterile filtered by Polyvent 4 disposable filters (Whatman, Kent, UK). […] To minimize bacterial contamination, all equipment and materials were autoclaved and media was added to flask in a Purifier Vertical Clean bench (Labconco, Kansas City, Mo.). […] The amount of DMSO is standardized for all experiments to 0.4%.
# (§2) For all compound cultures, the 2 mL DMSO stock solution was added to media (without algae) first and mixed well. Control cultures were grown without DMSO. DMSO controls consisted of 0.04-1.0% DMSO. After the addition of algae and media, the container was plugged with a bug stopper vented closure cap and mixed thoroughly. Absorbance is measured immediately for Day 0 analysis. Afterward, absorbance was measured every 1-2 days with a cuvette (1 mL volume) on the Thermo Scientific Genesys 10S V is Spectrophotometer (ThermoFisher, San Jose) at 680 nm.
# (§3) Batch cultures were also repeated in triplicate and compared to a control culture grown at the same time. Algae were harvested and lipids were extracted for gravimetric analysis.
# The nonpolar algal extracts were harvested from 500 mL cultures when indicated on growth curves, a minimum of 3 days into stationary phase.
# (§4) Cell density was monitored by measuring absorbance at 680 nm every 1-2 days.
# (§5) 500-mL cultures were harvested 6 days into stationary phase based on absorbance values. Cells were concentrated by centrifugation and lyophilization to remove water. Nonpolar lipids were extracted by sonication and solvent (chloroform-methanol and PBS buffer). […] Changes in lipid levels for batch cultures were determined by crude lipid extract mass.
# microalgae = assay: 500 mL batch culture (growth, gravimetric lipids), algae strain not stated; format: cell-based; conditions: 500 mL batch cultures (Table 30)
# Nannochloropsis oculata [8] = assay: Lipid composition of batch culture extracts (fatty acid saturation / PUFA by 1H NMR, MALDI-TOF, GC/MS); format: cell-based; conditions: N. oculata, 40 nM, n=1
# Protocol: The nonpolar algal extracts were harvested from 500 mL cultures when indicated on growth curves, a minimum of 3 days into stationary phase. […] Cells were crushed and nonpolar lipids were extracted by sonication (Fisher Scientific Model 120 Sonic Dismembrator, ThermoFisher, San Jose) for 1 minute in chloroform, followed by chloroform-methanol extractions, washed with PBS butter, and dried under vacuum.^55-60 The crude non-polar algae extracts were then analyzed by ^1H Nuclear Magnetic Resonance (^1H NMR) for verification of TAG presence and examination of the purity of the extract (determination of level of chlorophyll). The extracts were then divided for analysis; one part for transesterification, one part to save as crude extract, and one part for SPE separation and MALDI-TOF analysis of TAGs.
# Triacylglycerols can be isolated by solid-phase extraction (SPE) with 500 mg silica SPE cartridges (Silicycle, Quebec). The nonpolar extract is dissolved in 300 μL hexanes, and loaded on the SPE cartridge primed with hexanes. A mixture of 80:20:1 hexanes/diethyl ether/acetic acid was used as mobile phase to elute the TAGs.^61 SPE removes any chlorophyll in this process. Residual polar fraction containing polar lipids and chlorophyll was obtained by elution with acetone. All extracts and TAG fractions were dried under vacuum and stored under argon in amber vials at −20° C. before spectroscopic analysis. After SPE, the purified TAG fraction was reanalyzed with ^1H NMR spectroscopy for TAG characterization.
# The TOF was in Reflectron mode with laser intensity from 5500-6500 Volts. Each acquisition consisted of 2500 shots with a focus mass of 900 Da, and a scan range of m/z 400-1100. Multiple acquisition scans were performed at different laser intensities to determine optimal conditions. Samples for the MALDI-TOF were diluted to 5 mg/mL in hexane, and spotted in the fast-evaporation method in a 1:2 ratio with DHB (2,5-dihydroxybenzoic acid) as the matrix. Re-spotting with methanol allowed for the matrix and sample to mix without hexane interactions, and allowed for better crystal formation. All samples on MALDI plate were allowed to dry before MS analysis. Data was normalized to base peak in all cases.
# After the initial weight was recorded, the nonpolar extract set aside for transesterification was dissolved in 3.0 mL of 0.6 M sulfuric acid in methanol and stirred vigorously at 60° C. for 45 minutes.
# Initial GC/MS temperature was 50° C. and end was 200° C. over at a one hour period for optimal FAME peak separation.
# Peak assignment of fatty acids and their derivatives are based on NMR spectroscopic studies of previously reported algal lipid extracts^9 and comparison to standards such as olive oil (ACROS) and fatty acid mixtures.
# We developed a quick and robust method to screen if the screened compound effect fatty acid saturation levels using ^1H NMR spectroscopy. The amount of saturated fatty acids (SFA), monounsaturated fatty acids (MUFAs), and polyunsaturated fatty acids (PUFAs) was determined using peak area ratios.
# Calculated based on ^1H NMR integral ratios for the proton signals for the methyl group of PUFA components vs. the methyl groups of monounsaturated and saturated components.
# Diacylglycerol lipase = conditions: cited from earlier work
# [9] = test system: microsomal lipid peroxidation; conditions: cited from earlier work
# Nannochloropsis salina [10] = assay: 500 mL batch culture: growth, dry weight and lipid extract (gravimetric); format: cell-based; conditions: 40 nM
# Protocol: as §1, §2, §3
# Cultures were harvested at day 6 in stationary phase. Cultures were pelleted, lyophilized, and extracted side-by-side. The experiment was performed in triplicate.
# The nonpolar algal extracts were harvested from 500 mL cultures when indicated on growth curves, a minimum of 3 days into stationary phase. […] Cells were crushed and nonpolar lipids were extracted by sonication (Fisher Scientific Model 120 Sonic Dismembrator, ThermoFisher, San Jose) for 1 minute in chloroform, followed by chloroform-methanol extractions, washed with PBS butter, and dried under vacuum.^55-60 The crude non-polar algae extracts were then analyzed by ^1H Nuclear Magnetic Resonance (^1H NMR) for verification of TAG presence and examination of the purity of the extract (determination of level of chlorophyll).
# as §4, §5
# [11] = 40 μM, initial microplate screen, relative to control
# [12] = 200 nM, initial microplate screen, relative to control
# fatty acid amide hydrolase, sequence (O00519 whole entry): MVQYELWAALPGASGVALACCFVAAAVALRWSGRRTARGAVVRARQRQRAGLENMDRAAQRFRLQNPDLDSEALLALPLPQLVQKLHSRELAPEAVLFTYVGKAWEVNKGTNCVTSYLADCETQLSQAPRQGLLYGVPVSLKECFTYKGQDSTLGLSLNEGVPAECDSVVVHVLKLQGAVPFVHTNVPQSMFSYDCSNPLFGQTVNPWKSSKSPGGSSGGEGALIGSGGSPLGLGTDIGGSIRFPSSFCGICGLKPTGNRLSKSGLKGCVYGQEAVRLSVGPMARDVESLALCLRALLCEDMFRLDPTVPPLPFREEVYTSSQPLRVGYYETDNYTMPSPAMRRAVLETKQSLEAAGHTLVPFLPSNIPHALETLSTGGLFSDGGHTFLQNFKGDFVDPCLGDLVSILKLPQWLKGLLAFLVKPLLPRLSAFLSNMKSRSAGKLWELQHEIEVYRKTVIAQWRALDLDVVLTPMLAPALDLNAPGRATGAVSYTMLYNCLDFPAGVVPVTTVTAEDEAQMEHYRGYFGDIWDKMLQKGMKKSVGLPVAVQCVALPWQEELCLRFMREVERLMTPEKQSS
# PTP1b, sequence (P18031 whole entry, species assumed): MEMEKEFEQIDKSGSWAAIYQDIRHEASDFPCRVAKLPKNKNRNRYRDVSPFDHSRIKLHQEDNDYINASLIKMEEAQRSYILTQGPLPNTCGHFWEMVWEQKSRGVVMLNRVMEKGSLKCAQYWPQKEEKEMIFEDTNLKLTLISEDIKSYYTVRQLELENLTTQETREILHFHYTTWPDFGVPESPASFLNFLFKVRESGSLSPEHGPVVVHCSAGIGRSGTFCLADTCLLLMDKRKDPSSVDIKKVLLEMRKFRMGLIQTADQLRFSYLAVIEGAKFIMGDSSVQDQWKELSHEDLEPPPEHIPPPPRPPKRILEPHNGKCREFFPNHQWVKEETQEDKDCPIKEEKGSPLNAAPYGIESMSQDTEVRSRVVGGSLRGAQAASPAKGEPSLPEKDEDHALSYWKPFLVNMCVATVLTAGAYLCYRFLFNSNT
structure (smiles),measurement,setting,value
"CCN(NO)C1=CC(=O)C(=O)C=C1 [Ethyl 3,4-dephostatin, 4-[(hydroxyamino)-ethylamino]cyclohexa-3,5-diene-1,2-dione]",Absorbance (percent increase),[1]; [11],−2.4%
same,Nile Red percent increase,[1]; [11],115.0%
same,% increase (lipid production),[1]; 0.0252-165.6 nM (H2O),8-106%
same,% increase (lipid production),[1]; 2-18.4 nM,3-67%
same,IC50,PTP1b,3.2 µM
same,% increase (lipid production),Nannochloropsis salina [2]; 0.0252-165.6 nM (H2O),8-61%
same,% increase (lipid production),"Nannochloropsis salina [2]; 0.0252-165.6 nM, not marked H2O",8-20%
same,% increase (lipid production),"Nannochloropsis oculata [3]; 0.0252-165.6, concentrations giving an increase: (none)",(none)
"CCCCNC(=O)Oc1ccc(OCc2ccccc2)cc1 [FAAH Inhibitor I, 4-Benzyloxyphenyl-n-butylcarbamate]",IC50,[4],0.396 µM
same,% Lipid increase based on Nile red fluorescence intensity,"Nannochloris sp. [5]; Nannochloris sp., 0.6 nM, (water), t=day 0",189%
same,% Increase based on Nile Red Fluorescence Intensity,"Nannochloris sp. [5]; Nannochloris sp., 0.6 nM",189%
same,% Increase based on Nile Red Fluorescence Intensity,"Nannochloris sp. [5]; Nannochloris sp., 49 nM",160%
same,% Increase based on Nile Red Fluorescence Intensity,"Nannochloris sp. [5]; Nannochloris sp., 440 nM",161%
same,% Increase based on Nile Red Fluorescence Intensity,"Nannochloris sp. [5]; Nannochloris sp., 1.3 μM",152%
"Oc1cc(O)cc(/C=C/c2ccc(O)c(O)c2)c1 [Piceatannol, 3,3′,4,5′-Tetrahydroxy-trans-stilbene]",% increase (lipid production),[1]; 4-40 μM (H2O),7-41 (H2O) %
same,IC50,MLCK,12 µM
same,Nile Red percent increase,"Nannochloropsis salina [2]; 40 μM, dose-response microplate screen",195%
same,% increase (lipid production),Nannochloropsis salina [2]; 55-40 μM,0.3-148%
same,IC50,PKC,8 µM
same,IC50,[6],3 µM
"CO[C@H]1C[C@@H]2CC[C@@H](C)[C@@](O)(O2)C(=O)C(=O)N2CCCC[C@H]2C(=O)O[C@H]([C@H](C)C[C@@H]2CC[C@@H](O)[C@H](OC)C2)CC(=O)[C@H](C)/C=C(\C)[C@@H](O)[C@@H](OC)C(=O)[C@H](C)C[C@H](C)/C=C/C=C/C=C/1C [Rapamycin, (3S,6R,7E,9R,10R,12R,14S,15E,17E,19E,21S,23S,26R,27R,34aS)-9,10,12,13,14,21,22,23,24,25,26,27,32,33,34,34a-hexadecahydro-9,27-dihydroxy-3-[(1R)-2-[(1S,3R,4R)-4-hydroxy-3-methoxycyclohexyl]-1-methylethyl]-10,21-dimethoxy-6,8,12,14,20,26-hexamethyl-23,27-epoxy-3H-pyrido[2,1-c][1,4]-oxaazacyclohentriacontine-1,5,11,28,29(4H,6H,31H)-pentone]",IC50,p70 S6 kinase activation,0.05 nM
same,Absorbance (percent increase),Nannochloris sp. [5]; [12],−5.9%
same,Nile Red percent increase,Nannochloris sp. [5]; [12],107.9%
same,Nile Red Fluorescence % Increase,"Nannochloris sp. [5]; Nannochloris sp., compounds tested at 20 μM",117.3%
same,Nile Red Fluorescence % Increase,"Nannochloropsis oculata [3]; N. oculata, compounds tested at 200 nM, initial screening, p<0.05",141.6%
COc1ccc2c(c1)/C(=C/c1cnc[nH]1)C(=O)N2 [SU9516],IC50,CDK,0.022 µM
Cn1cnc2c1c(=O)[nH]c(=O)n2C [Theobromine],potency,ERK signaling pathway,(potency = 0.004 μM)
same,Nile Red Fluorescence % Increase,"Nannochloris sp. [5]; Nannochloris sp., compounds tested at 200 nM",34.3%
"CCCCCCCCCCC[C@@H](C[C@@H]1OC(=O)[C@H]1CCCCCC)OC(=O)[C@H](CC(C)C)NC=O [orlistat, (S)-((S)-1-((2S,3S)-3-hexyl-4-oxooxetan-2-yl)tridecan-2-yl) 2-formamido-4-methylpentanoate]",Lipid productivity,Nannochloris sp. [7],5.1 ± 1.5 mgL^−1day^−1
same,Change in Lipids,"Nannochloris sp. [7]; gravimetric, relative to averaged control without DMSO",72%
same,Specific Growth Rate,Nannochloris sp. [7]; mid-exponential growth phase,0.20 ± 0.01 day⁻¹
same,% change in abs,"Nannochloropsis salina [2]; N. salina, 40 μM",−31.92%
same,% in NR fl,"Nannochloropsis salina [2]; N. salina, 40 μM",61.76%
same,effect on growth and lipid levels,microalgae,positive increases in growth and lipid levels
same,% change in abs,"Nannochloropsis oculata [3]; N. oculata, 13 nM",0.83%
same,% in NR fl,"Nannochloropsis oculata [3]; N. oculata, 13 nM",63.67%
same,SFAs (%),Nannochloropsis oculata [8]; Normal 0 ± 1,3%
same,MUFAs (%),Nannochloropsis oculata [8]; Normal 4 ± 7,29%
same,n3 PUFAs (%),Nannochloropsis oculata [8]; Normal 28 ± 4,16%
same,PUFAs (%),Nannochloropsis oculata [8]; Normal 96 ± 7,68%
same,IC50,Diacylglycerol lipase,1 µM
"CCCOC(=O)c1cc(O)c(O)c(O)c1 [propyl gallate, propyl 3,4,5-trihydroxybenzoate]",IC50,[9],4.5 µM
same,% Inc,"Nannochloropsis salina [2]; increase of lipid production, N. salina, best conc. 10 nM",264.42%
same,increase in lipid levels,Nannochloropsis salina [10]; batch cultures,67%
same,Lipid productivity,"Nannochloropsis salina [10]; N. salina, 500 mL culture",8.3 ± 1.7 mgL^−1day^−1
same,Lipid content,"Nannochloropsis salina [10]; N. salina, 500 mL culture, dried lipid extract per dry biomass",25.9 ± 11.4 % w/w
same,Change in Lipids,"Nannochloropsis salina [10]; N. salina, 500 mL culture, gravimetric, relative to averaged control without DMSO",67%
same,Specific Growth Rate,"Nannochloropsis salina [10]; N. salina, 500 mL culture, mid-exponential growth phase",0.23 ± 0.002 day⁻¹

# From US8778643B2, “Methods for increasing lipid levels and producing triacylglycerols in algae” (priority 2012, dated 2014)
